Laboratory results taken from PubChem BioAssay (NCI).
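Cultured in 96-well plates, cells were exposed to test compound for 48 hours across five concentrations. GI50 marks 50% less growth. Definition used: TGI = concentration required for complete inhibition of growth.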

Legend:
Experiment in all cases: growth of human tumour cells (NCI), 48 h
[1] = system: EKVX NSCLC
[2] = system: HOP-62 NSCLC
[3] = system: HS 578T breast
[4] = system: KM12 colon
[5] = system: RPMI-8226 leukemia
[6] = system: RXF 393 renal
[7] = system: SR leukemia
[8] = system: UACC-257 melanoma
[9] = system: DMS 114 small cell lung
[10] = system: DMS 273 small cell lung
[11] = system: SNB-78 CNS
[12] = system: SN12K1 renal
[13] = system: XF 498 CNS

| Structure (SMILES) | TGI [1] [µM] | TGI [2] [µM] | TGI [3] [µM] | TGI [4] [µM] | TGI [5] [µM] | TGI [6] [µM] | TGI [7] [µM] | TGI [8] [µM] | TGI [9] [µM] | TGI [10] [µM] | TGI [11] [µM] | TGI [12] [µM] | TGI [13] [µM] | GI50 [5] [µM] | GI50 [6] [µM] | GI50 [1] [µM] | GI50 [2] [µM] | GI50 [3] [µM] | GI50 [4] [µM] | GI50 [8] [µM] |
| --- | --- | --- | --- | --- | --- | --- | --- | --- | --- | --- | --- | --- | --- | --- | --- | --- | --- | --- | --- | --- |
| Cc1cccc2c1Oc1ccccc1C2NC(=O)c1ccc([N+](=O)[O-])cc1 (configuration not stated) | > 100 | > 100 | 82.6 | > 100 | > 100 | 89.2 | > 100 | > 100 | – | – | – | – | – | – | – | – | – | – | – | – |
| CC1=C2C(=O)[C@H]3[C@@H](CC=C4C[C@@H](O)CC[C@@]43C)[C@@H]2CC[C@]12O[C@@H]1C[C@H](C)CN[C@H]1[C@H]2C | > 66.7 | > 55.2 | > 100 | > 83.4 | > 100 | > 53 | – | > 71.5 | 41.5 | 48.5 | 39.8 | – | – | – | – | – | – | – | – | – |
| COc1nc(SC)nc2c1cnn2C1OC(C(O)CO)C(OC)C1O (configuration not stated) | > 100 | > 100 | – | > 100 | > 100 | > 100 | – | > 100 | > 100 | > 100 | > 100 | > 84 | > 100 | – | – | – | – | – | – | – |
| CCCCC(C)C1CCC2(C)C=CC(=O)C(C)=C2C1O (configuration not stated) | > 100 | > 100 | – | > 100 | > 100 | > 100 | – | > 100 | > 100 | > 100 | > 100 | > 100 | > 100 | – | – | – | – | – | – | – |
| CCC1=CC2CN3CCc4c([nH]c5ccccc45)C(C(=O)OC)(C2)C13 (configuration not stated) | 78.2 | 86.1 | – | 41.8 | 137 | 78.7 | – | 104 | 85.1 | 91 | 167 | 39.6 | 76.3 | – | – | – | – | – | – | – |
| NCCCNc1nc2ccccc2c2c(=O)c3cc(C(F)(F)F)ccc3sc12 | – | – | – | – | 4.71 | 2.72 | – | – | – | – | – | – | – | 2.06 | 1.38 | – | – | – | – | – |
| Cc1[nH]c(=O)nc(N/N=C/c2ccc(Cl)cc2)c1C(=O)NC(C)(CO)CO | > 100 | > 100 | > 100 | > 100 | > 100 | > 100 | > 100 | > 100 | – | – | – | – | – | – | – | – | – | – | – | – |
| CC1(C23CC4CC(CC(C4)C2)C3)n2c(=O)n(-c3ccccc3)c(=O)n2C1(C)C12CC3CC(CC(C3)C1)C2 (configuration not stated) | > 100 | > 100 | > 100 | > 100 | > 100 | – | > 100 | > 100 | – | – | – | – | – | – | – | – | – | – | – | – |
| CN1C2CC(=O)CC1[C@H](O)[C@@H]2O | > 100 | > 100 | – | > 100 | > 100 | > 100 | > 100 | > 100 | – | – | – | – | – | – | – | – | – | – | – | – |
| CCOC(=O)c1csc(NC(=O)CCN2CCCCC2)n1 | > 100 | > 100 | – | – | > 100 | > 100 | > 100 | > 100 | – | – | – | – | – | – | – | – | – | – | – | – |
| COCC1CCCN1c1ccc(/C=C(/C#N)C(N)=S)cc1 (configuration not stated) | > 100 | > 100 | > 100 | > 100 | – | > 100 | – | > 100 | – | – | – | – | – | – | > 100 | > 100 | > 100 | > 100 | 39.5 | > 100 |
| COc1cc(C2C(Cl)C(=O)N2NC(=O)c2ccccc2O)ccc1O (configuration not stated) | – | – | – | > 100 | – | > 100 | – | > 100 | > 100 | > 100 | > 100 | – | > 100 | – | – | – | – | – | – | – |
